Results as given in ChEMBL document CHEMBL4418259, “Flavan-3-ol containing foodstuffs” (2012).

The compounds below were run against T1, Taste receptor type 2 member 39 (Homo sapiens) (UniProt P59534) (assay: Inhibition of human TAS2R39 expressed in HEK293 cells coexpressing G-protein at 10 mM assessed as reduction in epicatechin gallate-induced intracellular calcium release by Fluo-4-AM dye based fluorescence assay relative to control).
T1 sequence (whole entry): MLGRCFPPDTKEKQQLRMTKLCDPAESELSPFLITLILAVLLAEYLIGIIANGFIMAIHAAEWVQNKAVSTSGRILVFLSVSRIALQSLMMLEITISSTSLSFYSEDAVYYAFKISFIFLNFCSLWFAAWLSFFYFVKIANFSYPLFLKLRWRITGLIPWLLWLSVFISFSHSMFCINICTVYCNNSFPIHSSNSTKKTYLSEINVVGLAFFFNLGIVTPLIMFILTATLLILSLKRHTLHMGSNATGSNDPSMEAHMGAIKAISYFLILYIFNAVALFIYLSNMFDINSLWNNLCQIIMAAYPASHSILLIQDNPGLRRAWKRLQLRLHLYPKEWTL
Type: functional, cell-based

Q: How did the inhibition turn out when COc1cccc(/C=C/C(=O)O)c1 was run?
A: The inhibition was 0%.

Q: COc1ccc(C(=O)O)cc1 was tested. Which inhibition did it give?
A: The inhibition was 15%.

Q: For COc1ccc(C(=O)O)cc1OC, which inhibition is on record?
A: The inhibition was 10%.

Q: With COc1ccc(/C=C/C(=O)O)cc1 as the compound, how does the inhibition read?
A: The inhibition was 30%.

Q: For COc1cc(C(=O)O)cc(OC)c1OC, which inhibition is on record?
A: Its inhibition is 20%.

Q: With O=C(O)CCc1ccccc1 as the compound, how does the inhibition read?
A: Its inhibition is 15%.

Q: Which inhibition does the source give for O=C(O)/C=C/c1ccccc1 here?
A: Its inhibition is 40%.

Q: Which inhibition does the source give for COc1cc(/C=C/C(=O)O)cc(OC)c1OC here?
A: The inhibition was 70%.

Q: With COc1cc(/C=C/C(=O)O)cc(OC)c1O as the compound, how does the inhibition read?
A: Its inhibition is 65%.

Q: For COc1cc(CCC(=O)O)cc(OC)c1OC, which inhibition is on record?
A: The inhibition was 35%.

Q: O=C(O)/C=C/c1ccc(O)c(O)c1 was tested. Which inhibition did it give?
A: The inhibition was 30%.

Q: With N[C@@H](Cc1ccccc1)C(=O)O as the compound, how does the inhibition read?
A: The inhibition was 0%.

Q: With O=C(O)Cc1ccccc1 as the compound, how does the inhibition read?
A: Its inhibition is 5%.

Q: For COc1cccc(C(=O)O)c1O, which inhibition is on record?
A: Its inhibition is 25%.

Q: For O=C(O)CCCc1ccccc1, which inhibition is on record?
A: The inhibition was 40%.

Q: COc1ccccc1C(=O)O was tested. Which inhibition did it give?
A: The inhibition was 10%.

Q: With COc1cccc(C(=O)O)c1 as the compound, how does the inhibition read?
A: The inhibition was 5%.

Q: O=C(O)CCc1ccc(O)c(O)c1 was tested. Which inhibition did it give?
A: Its inhibition is 30%.

Q: COc1cc(CCC(=O)O)ccc1O was tested. Which inhibition did it give?
A: The inhibition was 35%.

Q: With O=C(O)c1ccc(O)c(O)c1 as the compound, how does the inhibition read?
A: Its inhibition is 15%.

Q: Which inhibition does the source give for O=C(O)Cc1ccc(O)cc1 here?
A: The inhibition was 20%.

Q: How did the inhibition turn out when COc1cc(/C=C/C(=O)O)ccc1O was run?
A: The inhibition was 65%.

Q: How did the inhibition turn out when O=C(O)CCc1ccc(O)cc1 was run?
A: Its inhibition is 25%.

Q: For COc1ccc(CCC(=O)O)cc1, which inhibition is on record?
A: Its inhibition is 40%.

Q: COc1ccc(CC(=O)O)cc1 was tested. Which inhibition did it give?
A: The inhibition was 15%.

Q: O=C(O)c1ccc(O)cc1 was tested. Which inhibition did it give?
A: Its inhibition is 25%.

Q: How did the inhibition turn out when COc1ccccc1/C=C/C(=O)O was run?
A: The inhibition was 0%.

Q: With COc1cc(CC(=O)O)cc(OC)c1OC as the compound, how does the inhibition read?
A: Its inhibition is 25%.

Q: O=C(O)Cc1ccc(O)c(O)c1 was tested. Which inhibition did it give?
A: The inhibition was 15%.

Q: With O=C(O)c1cc(O)c(O)c(O)c1 as the compound, how does the inhibition read?
A: Its inhibition is 25%.

Q: COc1ccc(/C=C/C(=O)O)c(OC)c1 was tested. Which inhibition did it give?
A: The inhibition was 40%.

Q: How did the inhibition turn out when O=C(O)c1ccccc1 was run?
A: The inhibition was 20%.

Q: For O=C(O)/C=C/c1ccc(O)cc1, which inhibition is on record?
A: The inhibition was 40%.

Q: With COc1ccc(CCC(=O)O)cc1OC as the compound, how does the inhibition read?
A: The inhibition was 35%.

Q: For COc1cc(/C=C/C(=O)O)cc(OC)c1, which inhibition is on record?
A: Its inhibition is 20%.
